Source: paper PMC3834954, “Design, Synthesis and in Vitro Degradation of a Novel Co-Drug for the Treatment of Psoriasis” (Pharmaceutics, 2013)

System: porcine liver esterase (PLE)
Assay: HPLC of naproxen release, initial rates, Lineweaver-Burk
Type: biochemical, Sus scrofa
Settings: PBS, 5% acetonitrile, 25 °C, 120 IU/mL PLE, 29-91 μM substrate; ester hydrolysis

Km: 65.1 ± 0.99 µM
Structure (SMILES): COc1ccc2cc(C(C)C(=O)Oc3cccc4c3C(=O)c3c(O)cccc3C4)ccc2c1 (stereo not shown) [compound 8, 8-Hydroxy-9-oxo-9,10-dihydroanthracen-1-yl 2-(6-methoxynaphthalen-2-yl)propanoate]
